Article PMC4971072, “Chemically Homogenous Compounds with Antagonistic Properties at All α1-Adrenoceptor Subtypes but not β1-Adrenoceptor Attenuate Adrenaline-Induced Arrhythmia in Rats” (Frontiers in Pharmacology, 2016)

Experiments:
[1] = test system: normal ECG in rats; assay: The effect on normal electrocardiogram in rats; format: in vivo, rat; details: anesthetized rats, i.p. at ED84
Description: The experiment was carried out to exclude the influence of tested compounds on normal ECG. […] The influence on QRS complex, PQ interval, heart rate (RR), and QTc interval was determined.

[2] = test system: lipid peroxidation in rat brain homogenate; assay: Lipid peroxidation in rat brain homogenate (TBARS), antioxidant effect; format: biochemical; details: 10^−3 M; for % reduction of absorbance (% antioxidant activity) / Absorbance: TBARs at 532 nm
Description: The rat brain homogenate containing 10 mg tissue/ml was prepared in 0.9% saline. The rates of membrane lipid peroxidation were measured by the formation of thiobarbituric acid reactive substances (TBARS). Rat brain homogenates (1 ml) were incubated at 37°C for 5 min with 10 μl of a tested compound or vehicle. Lipid peroxidation was initiated by the addition of 50 μl of 0.5 mM FeCl2 and 50 μl of 2.0 mM ascorbic acid. After 30 min of incubation, the reaction was stopped by adding 0.1 ml of 0.2% butylated hydroxytoluene (BHT). Thiobarbituric acid reagent was then added and the mixture was heated for 15 min in a boiling water bath.

[3] = target: T1, α1A-adrenoceptors (Rattus norvegicus, UniProt P43140); assay: Functional bioassay, isolated rat tail artery, noradrenaline contraction; format: biochemical; details: noradrenaline as agonist; for Kb: read-out: pA2 ± S.E.M., α1A (converted)
T1 construct: the middle part of the ventral caudal artery was removed; from tissue; host or cells: isolated rat tail (ventral caudal) artery rings
T1 sequence (P43140 1-466): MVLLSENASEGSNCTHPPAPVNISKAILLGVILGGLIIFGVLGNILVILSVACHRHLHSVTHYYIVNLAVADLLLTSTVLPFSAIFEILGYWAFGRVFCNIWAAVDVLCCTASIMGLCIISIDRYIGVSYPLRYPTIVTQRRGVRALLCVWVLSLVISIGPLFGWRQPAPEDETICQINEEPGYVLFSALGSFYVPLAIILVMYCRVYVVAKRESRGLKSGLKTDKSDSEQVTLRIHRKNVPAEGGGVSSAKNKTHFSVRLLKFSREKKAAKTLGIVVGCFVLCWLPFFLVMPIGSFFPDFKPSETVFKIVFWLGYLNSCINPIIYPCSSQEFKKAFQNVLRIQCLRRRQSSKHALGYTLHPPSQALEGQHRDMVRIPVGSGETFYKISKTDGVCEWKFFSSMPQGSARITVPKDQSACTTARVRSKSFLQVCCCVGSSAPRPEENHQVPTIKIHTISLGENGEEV
Description: The isolated artery, cut into ~4 mm long rings, was then horizontally put up between two stainless steel hooks (diameter 0.15 mm). One hook was fastened to the bottom of the chamber and the other to an isometric FDT10-A force displacement transducer (DMT Model 750TOBS, Denmark), linked with Powerlab 4/26 analyzer (ADInstruments), and processed by LabChart 7 software. […] The initial optimal tissues tension was set at 0.75 g. Chloroethylclonidine (3 μM) as the preferential α1B-adrenoreceptor alkylating agent was used during incubation and after 30 min it was completely washed off. Through 100 min of equilibration tissues were stimulated with noradrenaline (1 μM) four times with washing out until the contractile response become constant. Two cumulative concentration-response curves to noradrenaline, at an interval of 60 min, were established on each arterial ring both in the presence and absence of antagonist. The incubation with antagonists went on for 30 min. The experiments were carried out in the constant presence of yohimbine (0.1 μM) and propranolol (1 μM) to block α2- and β-adrenoceptors, respectively in order to minimize the involvement of these adrenoceptors in the response to noradrenaline.
Data are means ± S.E.M. of at least 4 separate experiments. To establish Hill slopes for the agonist concentration–response curves and calculate EC50 values, curves were fitted to all the data by non-linear regression. The EC50 value in the presence and absence of antagonists was used to ascertain the concentration ratio (CR). Schild analysis was performed.

[4] = test system: adrenaline-induced arrhythmia in rats; assay: Prophylactic antiarrhythmic activity in adrenaline-induced arrhythmia; format: in vivo, rat; details: for ED50: Rattus norvegicus, read-out: ED50 (confidence limits)
Description: The studied compounds were administered i.p. 45 min before the injection of adrenaline, calcium chloride, or barium chloride. The electrocardiogram (ECG) was recorded during the first 2 min as well as in the 5th, 10th, and 15th min after the arrhythmogen injection. […]

[5] = dose 2.5 mg/kg i.p. 45 min before adrenaline 20 μg/kg i.v.
[6] = dose 5 mg/kg i.p. 45 min before adrenaline 20 μg/kg i.v.
[7] = dose 10 mg/kg i.p. 45 min before adrenaline 20 μg/kg i.v.

COc1ccccc1N1CCN(CCOCCOc2c(C)cccc2C)CC1.Cl [HBK-14, 1-[(2,6-dimethylphenoxy)ethoxyethyl]-4-(2-methoxyphenyl)piperazine hydrochloride]
influence on ECG parameters (PQ interval, QRS complex, QTc interval) [1]: did not influence the ECG parameters
Beats/min (ECG) ([1]; 0 min (initial values)): 366.0 ± 10.8 Beats/min
PQ (ECG) ([1]; 0 min (initial values)): 47.1 ± 1.1 ms
QRS (ECG) ([1]; 0 min (initial values)): 26.1 ± 0.7 ms
QT (ECG) ([1]; 0 min (initial values)): 85.8 ± 1.3 ms
QTc (ECG, Bazett) ([1]; 0 min (initial values)): 211.7 ± 3.2 ms
Beats/min (ECG) ([1]; 5 min): 369.8 ± 10.0 Beats/min
PQ (ECG) ([1]; 5 min): 46.0 ± 1.0 ms
QRS (ECG) ([1]; 5 min): 25.8 ± 0.5 ms
QT (ECG) ([1]; 5 min): 85.0 ± 4.1 ms
QTc (ECG, Bazett) ([1]; 5 min): 209.2 ± 8.3 ms
Beats/min (ECG) ([1]; 10 min): 367.0 ± 9.9 Beats/min
PQ (ECG) ([1]; 10 min): 46.3 ± 0.9 ms
QRS (ECG) ([1]; 10 min): 27.6 ± 1.0 ms
QT (ECG) ([1]; 10 min): 88.7 ± 1.9 ms
QTc (ECG, Bazett) ([1]; 10 min): 214.8 ± 5.0 ms
Beats/min (ECG) ([1]; 15 min): 359.8 ± 9.5 Beats/min
PQ (ECG) ([1]; 15 min): 47.5 ± 1.3 ms
QRS (ECG) ([1]; 15 min): 27.0 ± 0.6 ms
QT (ECG) ([1]; 15 min): 89.0 ± 2.4 ms
QTc (ECG, Bazett) ([1]; 15 min): 212.9 ± 5.7 ms
Beats/min (ECG) ([1]; 20 min): 358.4 ± 11.4 Beats/min
PQ (ECG) ([1]; 20 min): 46.3 ± 1.0 ms
QRS (ECG) ([1]; 20 min): 26.3 ± 0.4 ms
QT (ECG) ([1]; 20 min): 88.2 ± 2.9 ms
QTc (ECG, Bazett) ([1]; 20 min): 212.5 ± 4.6 ms
Beats/min (ECG) ([1]; 30 min): 359.8 ± 9.6 Beats/min
PQ (ECG) ([1]; 30 min): 48.8 ± 1.9 ms
QRS (ECG) ([1]; 30 min): 26.7 ± 0.9 ms
QT (ECG) ([1]; 30 min): 89.6 ± 1.7 ms
QTc (ECG, Bazett) ([1]; 30 min): 214.1 ± 5.0 ms
Beats/min (ECG) ([1]; 40 min): 362.6 ± 11.9 Beats/min
PQ (ECG) ([1]; 40 min): 48.2 ± 2.1 ms
QRS (ECG) ([1]; 40 min): 26.1 ± 0.4 ms
QT (ECG) ([1]; 40 min): 89.0 ± 2.1 ms
QTc (ECG, Bazett) ([1]; 40 min): 214.1 ± 5.2 ms
Beats/min (ECG) ([1]; 50 min): 361.6 ± 12.6 Beats/min
PQ (ECG) ([1]; 50 min): 47.3 ± 1.6 ms
QRS (ECG) ([1]; 50 min): 26.7 ± 1.0 ms
QT (ECG) ([1]; 50 min): 87.9 ± 1.2 ms
QTc (ECG, Bazett) ([1]; 50 min): 210.9 ± 5.1 ms
Beats/min (ECG) ([1]; 60 min): 364.6 ± 11.2 Beats/min
PQ (ECG) ([1]; 60 min): 48.4 ± 0.9 ms
QRS (ECG) ([1]; 60 min): 27.5 ± 0.7 ms
QT (ECG) ([1]; 60 min): 89.5 ± 2.4 ms
QTc (ECG, Bazett) ([1]; 60 min): 214.1 ± 4.2 ms
inhibition of lipid peroxidation (in words) [2]: inactive
% reduction of absorbance (% antioxidant activity) [2]: −4.10%
Absorbance [2]: 0.939 ± 0.007
Schild slope ± S.E.M., α1A [3]: 0.97 ± 0.15
Kb [3]: 0.0102 µM
ED50 [4]: 3.88 mg/kg
Bigeminy (%) [4, 5]: 50.0%
Blocks (%) [4, 5]: 83.3%
Bradycardia (%) [4, 5]: 83.3%
Extrasystoles (%) [4, 5]: 100.0%
Bigeminy (%) [4, 6]: 33.3%
Blocks (%) [4, 6]: 33.3%
Bradycardia (%) [4, 6]: 50.0%
Extrasystoles (%) [4, 6]: 50.0%
Bigeminy (%) [4, 7]: 16.7%
Blocks (%) [4, 7]: 33.3%
Bradycardia (%) [4, 7]: 50.0%
Extrasystoles (%) [4, 7]: 16.7%

COc1ccccc1N1CCN(CCOCCOc2c(C)cccc2Cl)CC1.Cl [HBK-15, 1-[(2-chloro-6-methylphenoxy)ethoxyethyl]-4-(2-methoxyphenyl)piperazine hydrochloride]
influence on ECG parameters (PQ interval, QRS complex, QTc interval) [1]: did not influence the ECG parameters
Beats/min (ECG) ([1]; 0 min (initial values)): 353.8 ± 10.2 Beats/min
PQ (ECG) ([1]; 0 min (initial values)): 48.7 ± 1.0 ms
QRS (ECG) ([1]; 0 min (initial values)): 25.7 ± 0.7 ms
QT (ECG) ([1]; 0 min (initial values)): 87.3 ± 1.4 ms
QTc (ECG, Bazett) ([1]; 0 min (initial values)): 212.0 ± 5.0 ms
Beats/min (ECG) ([1]; 5 min): 365.4 ± 15.3 Beats/min
PQ (ECG) ([1]; 5 min): 48.4 ± 0.5 ms
QRS (ECG) ([1]; 5 min): 26.3 ± 0.9 ms
QT (ECG) ([1]; 5 min): 86.5 ± 1.3 ms
QTc (ECG, Bazett) ([1]; 5 min): 213.6 ± 7.0 ms
Beats/min (ECG) ([1]; 10 min): 350.8 ± 10.5 Beats/min
PQ (ECG) ([1]; 10 min): 48.2 ± 1.0 ms
QRS (ECG) ([1]; 10 min): 26.1 ± 1.1 ms
QT (ECG) ([1]; 10 min): 87.2 ± 2.0 ms
QTc (ECG, Bazett) ([1]; 10 min): 211.3 ± 6.2 ms
Beats/min (ECG) ([1]; 15 min): 333.9 ± 12.4 Beats/min
PQ (ECG) ([1]; 15 min): 46.6 ± 0.9 ms
QRS (ECG) ([1]; 15 min): 25.6 ± 1.2 ms
QT (ECG) ([1]; 15 min): 87.5 ± 2.0 ms
QTc (ECG, Bazett) ([1]; 15 min): 207.1 ± 6.8 ms
Beats/min (ECG) ([1]; 20 min): 327.6 ± 20.3 Beats/min
PQ (ECG) ([1]; 20 min): 47.6 ± 0.5 ms
QRS (ECG) ([1]; 20 min): 26.3 ± 0.5 ms
QT (ECG) ([1]; 20 min): 87.2 ± 0.6 ms
QTc (ECG, Bazett) ([1]; 20 min): 203.7 ± 7.2 ms
Beats/min (ECG) ([1]; 30 min): 340.1 ± 17.7 Beats/min
PQ (ECG) ([1]; 30 min): 46.1 ± 0.3 ms
QRS (ECG) ([1]; 30 min): 26.4 ± 0.9 ms
QT (ECG) ([1]; 30 min): 86.7 ± 1.1 ms
QTc (ECG, Bazett) ([1]; 30 min): 206.4 ± 7.9 ms
Beats/min (ECG) ([1]; 40 min): 339.5 ± 20.4 Beats/min
PQ (ECG) ([1]; 40 min): 46.1 ± 0.7 ms
QRS (ECG) ([1]; 40 min): 28.0 ± 0.9 ms
QT (ECG) ([1]; 40 min): 87.0 ± 1.5 ms
QTc (ECG, Bazett) ([1]; 40 min): 206.5 ± 6.6 ms
Beats/min (ECG) ([1]; 50 min): 350.1 ± 17.9 Beats/min
PQ (ECG) ([1]; 50 min): 47.5 ± 0.7 ms
QRS (ECG) ([1]; 50 min): 26.1 ± 1.2 ms
QT (ECG) ([1]; 50 min): 88.2 ± 0.8 ms
QTc (ECG, Bazett) ([1]; 50 min): 212.7 ± 6.9 ms
Beats/min (ECG) ([1]; 60 min): 351.8 ± 15.0 Beats/min
PQ (ECG) ([1]; 60 min): 48.0 ± 1.1 ms
QRS (ECG) ([1]; 60 min): 26.3 ± 0.5 ms
QT (ECG) ([1]; 60 min): 88.5 ± 2.2 ms
QTc (ECG, Bazett) ([1]; 60 min): 213.9 ± 7.2 ms
inhibition of lipid peroxidation (in words) [2]: inactive
% reduction of absorbance (% antioxidant activity) [2]: 1.22%
Absorbance [2]: 0.891 ± 0.008
Schild slope ± S.E.M., α1A [3]: 1.01 ± 0.18
Kb [3]: 0.0195 µM
ED50 [4]: 4.8 mg/kg
Bigeminy (%) [4, 5]: 33.3%
Blocks (%) [4, 5]: 66.7%
Bradycardia (%) [4, 5]: 66.7%
Extrasystoles (%) [4, 5]: 66.7%
Bigeminy (%) [4, 6]: 16.7%
Blocks (%) [4, 6]: 50.0%
Bradycardia (%) [4, 6]: 66.7%
Extrasystoles (%) [4, 6]: 50.0%
Bigeminy (%) [4, 7]: 16.7%
Blocks (%) [4, 7]: 33.3%
Bradycardia (%) [4, 7]: 50.0%
Extrasystoles (%) [4, 7]: 33.3%
